# Reference: patent US9958452B2, “Highly fluorogenic protein labelling agents” (UNIVERSITY OF OTTAWA, priority 2015, dated 2018)
# Legend:
# [1] = Time-dependent fluorescence increase with excess glutathione; format: biochemical
# [2] = tested on: MBP-dC10α; test: Excitation and emission spectra of fluorogen-labelled MBP-dC10α; format: physicochemical; settings: 25 μM MBP-dC10α labelled with one equivalent of fluorogen
# Method: (§1) Emission spectra and fluorescence intensity measurements were recorded at 37° C. with a Synergy H4 Hybrid Multi-Mode Microplate Reader with excitation and emission monochromators set at 9 nm bandpass. Concentrations of 2.5, 5, 12.5, 20, and 25 μM of MBP-dC10α were reacted with 25 μM YC23. The mixture of 25 μM solution of YC23 and 2.5, 5, 12.5 20, or 25 μM MBP-dC10α in 50 mM HEPES buffer (pH 7.4) with 5% DMSO was incubated at 37° C. in the dark for overnight after which the fluorescence emission spectrum was recorded (λex=480 nm). The emission spectra of YC23 in the same solution without MBP-dC10α were also recorded. The ratio of fluorescence intensity at maximum emission gave the fluorescence enhancement ratio. Selectivity tests were done with same protocol but with different concentrations of thiols. The mixture of 25 μM solution of YC28 or YC29 and 25 μM MBP-dC10α in 50 mM HEPES buffer (pH 7.4) with 5% DMSO was incubated at 37° C. in the dark for overnight after which the fluorescence emission spectrum was recorded. The emission spectra of YC28 or YC29 in the same solution without MBP-dC10α were also recorded. The ratio of fluorescence intensity at maximum emission gave the fluorescence enhancement ratio. λex for YC28 is 540 nm and λex for YC29 is 580 nm. Excitation and emission spectra were obtained for 25 μM of MBP-dC10α labelled with one equivalent of YC23 (FIG. 10), YC28 (FIG. 11a) or YC29 (FIG. 11b).
# [3] = tested on: MBP-dC10α; test: Fluorescence enhancement of fluorogen after labelling of test protein MBP-dC10α; format: biochemical; settings: for fluorescence enhancement after reaction with MBP-dC10α: 25 μM fluorogen + 25 μM MBP-dC10α, overnight at 37° C., ratio of intensity at emission maximum; for background (latent) fluorescence of the unreacted fluorogen: 25 μM fluorogen without MBP-dC10α, 50 mM HEPES pH 7.4, 5% DMSO
# Method: 3. Determination of Fluorescence Properties of Fluorogens, Fluorescence Changes after Labelling of Target Protein, Selectivity Over Other Thiols, and Fluorescence Enhancement Ratios.
# as §1
# [4] = tested on: histone-H2B-dC10α in HEK293T cells; test: Cellular labelling with confocal fluorescence microscopy; format: cell-based, Human; settings: for fluorescence in cells transfected with histone-H2B-dC10α / fluorescence in negative-control cells (pcDNA / mock DNA): HEK293T, 10 μM fluorogen; for fluorescence in cells transfected with histone-H2B-dC10α: 30 min (YC23) or 45 min (YC29); for fluorescence in negative-control cells (pcDNA / mock DNA): same conditions
# Method: HEK 293T cells were plated into 60-mm dishes and grown in MEM supplemented with 10% FBS, 100 units/mL of penicillin and 100 μg/mL of streptomycin for 16 h before transfection. Cells were transiently transfected with histone H2B-dC10α or pcDNA3.1 (mock) using lipofectamine 2000 following the manufacturer's instructions. […] Cells were observed and imaged on a Nikon confocal microscope with a 25× objective. Images were taken and analyzed with NIS-Elements software.
# [5] = tested on: MBP-dC10α; test: Time-dependent fluorescence increase for kinetic studies with MBP-dC10α; format: biochemical
# Method: 4. Time-Dependent Fluorescence Increase for Kinetic Studies.
# Protein labelling kinetics were studied by following the time-dependent fluorescence increase at 37° C. using a Synergy H4 Hybrid Multi-Mode Microplate Reader with excitation and emission monochromators set at a 9-nm bandpass. The reaction was prepared in 50 mM HEPES buffer (pH 7.4) with 5% DMSO. Solutions of MBP-dC10α were prepared in a 96-well plate and labelling reagent YC23, YC28 or YC29 in DMSO was added immediately before recording. The final concentrations of YC23, YC28, YC29 and of MBP-dC10α were all 25 μM in 50 mM HEPES buffer (pH 7.4) with 5% DMSO. Samples were excited at 495 nm (YC23), 540 nm (YC28) or 580 nm (YC29) and fluorescence intensity was followed at 525 nm (YC23), 590 nm (YC28) or 630 nm (YC29) as a function of time.
# [6] = tested on: MBP-dC10α; test: Labelling of MBP-dC10α, purified and in bacterial lysate, analysed by SDS-PAGE after heat denaturation; format: biochemical, Escherichia coli
# Method: 10% SDS-PAGE gels developed by (A) fluorescence (λex=491 nm, λem=508 nm) and (B) Coomassie staining are shown. Lane 1: molecular weight markers. Lanes 2-3: Purified MBP-[…]α, concentrated to 50 μM and (lane 3) labelled with 50 μM YC23, prior to 10-fold dilution and loading. Lanes 4-6: Soluble lysate of bacteria expressing MBP-[…]α, treated with 10, 50, or 100 μM YC23 respectively and 0.5 mM TCEP overnight, prior to loading. The thiol addition reaction of a maleimide group typically results in the formation of robust covalent bonds, which should be stable under conditions in which the labelled protein may itself undergo denaturation. To test this hypothesis, we expressed MBP-[…]α in Escherichia coli and used YC23 to label the test protein in bacterial lysate as well as the purified test protein. These samples were then heated to 95° C. for 15 min, prior to analysis by SDS-PAGE. […] Furthermore, as shown in lanes 4-6, as little as 10 μM of YC23 was sufficient to label the test protein, in the complex biological mixture of cell lysate.
# [7] = tested on: HEK293T cells; test: MTT assay cytotoxicity; format: cell-based, Human; settings: up to 100 μM, 20 hours
# Method: 3-(4,5-Dimethylthiazol-2-yl)-2,5-diphenyl tetrazolium bromide (MTT) is a yellow tetrazolium salt and can be reduced to formazan crystals, which are insoluble in aqueous solutions, by active mitochondria in living cells. The resulting intracellular purple formazan can be dissolved in Triton X100, and therefore quantified by measuring absorption of the solution.
# Cells were seeded in a 96-well plate and incubated with 100 μL of culture medium with different amounts of the fluorogen YCx for 20 h. No fluorogen was added to the positive control and no cells were plated in the negative control. Portions of 25 μL of MTT solution (5 mg in 1 mL of Hanks' balanced salt solution) were added to the wells and the cells were further incubated at 37° C. for 4 h. Solubilization solutions (100 μL) were then added and incubated in 96-well plates at room temperature in the dark overnight. The absorption of each well was measured using a plate reader at a wavelength of 570 nm with 690 nm as a reference. Cell viability was calculated according to the following equation: Cell viability=(Awith fluorogen−Anegative control)/(Apositive control−Anegative control)×100%
# [8] = Selectivity over other thiols, overnight incubation; format: biochemical; settings: 25 μM YC23 overnight; 250 μM Cys and Hcy, 1 mM GSH vs 25 μM MBP-dC10α
# Method: The selectivity of fluorogen YC23 was tested by incubating it overnight in the presence of MBP-dC10α or other intracellular thiols.
# as §1, with “Excitation and emission spectra were obtained for 25 μM of MBP-dC10α labelled with one equivalent of YC23 (FIG. 10), YC28 (FIG. 11a) or YC29 (FIG. 11b).” left out
SMILES,reaction with GSH (time-dependent fluorescence) ([1]; 5 mM GSH),stability and selectivity of the fluorogen ([1]; in presence of GSH vs MBP-dC10α),emission maximum of labelled MBP-dC10α [2] [nm],fluorescence enhancement after reaction with MBP-dC10α [3],background (latent) fluorescence of the unreacted fluorogen [3],"localisation of fluorescence in transfected cells ([4]; HEK293T expressing histone H2B-dC10α, 10 μM, 45 min)",fluorescence in cells transfected with histone-H2B-dC10α [4],fluorescence in negative-control cells (pcDNA / mock DNA) [4],"reaction with MBP-dC10α test protein (time-dependent fluorescence) ([5]; 25 μM fluorogen, 25 μM MBP-dC10α)",kinetic selectivity for MBP-dC10α relative to GSH ([1]; 25 μM MBP vs 5 mM GSH),"fluorescence of labelled purified test protein under denaturing conditions ([6]; 95° C. for 15 min, then SDS-PAGE)","concentration sufficient to label the test protein in cell lysate ([6]; soluble bacterial lysate, 0.5 mM TCEP, overnight) [µM]",effect on cell viability [7],fluorescence after incubation with other thiols relative to MBP-dC10α [8] [%],excitation maximum of labelled MBP-dC10α [2] [nm],"dependence of fluorescence increase on MBP-dC10α concentration ([3]; 25 μM YC23, 2.5-25 μM MBP-dC10α)","time required to approach maximum fluorescence ([5]; 25 μM fluorogen + 25 μM MBP-dC10α, 37° C.)","fluorescence increase after 15 min ([5]; 25 μM fluorogen + 25 μM MBP-dC10α, 37° C., 15 min) [fold]"
"COC1=CC(=O)N(c2cc(Nc3ccc4n3[B-](F)(F)[N+]3=C(N(C)c5ccccc5)C=CC3=C4c3ccccc3)cc(N3C(=O)C=C(OC)C3=O)c2)C1=O [YC29, 7-((3,5-bis(3-methoxy-2,5-dioxo-2,5-dihydro-1H-pyrrol-1-yl)phenyl)amino)-5,5-difluoro-3-(methyl(phenyl)amino)-10-phenyl-5H-dipyrrolo[1,2-c:2′,1′-f][1,3,2]diazaborinin-4-ium-5-uide]",did not show any detectable reaction,excellent stability and selectivity,630,308 fold,efficiently quenched,localized in the nucleus,Intense red fluorescence,no red fluorescence was detected,reacted readily,–,–,–,–,–,–,–,–,–
"COC(=O)CSC1=[N+]2C(=C(c3ccccc3)c3ccc(Nc4cc(N5C(=O)C=C(OC)C5=O)cc(N5C(=O)C=C(OC)C5=O)c4)n3[B-]2(F)F)C=C1 [YC28, 7-((3,5-bis(3-methoxy-2,5-dioxo-2,5-dihydro-1H-pyrrol-1-yl)phenyl)amino)-5,5-difluoro-3-((2-methoxy-2-oxoethyl)thio)-10-phenyl-5H-dipyrrolo[1,2-c:2′,1′-f][1,3,2]diazaborinin-4-ium-5-uide]",–,–,592,579 fold,effectively quenched,–,–,–,–,acceptable but not excellent,–,–,–,–,–,–,–,–
"COC1=CC(=O)N(c2ccc(C3=C4C(C)=CC(C)=[N+]4[B-](F)(F)n4c(C)cc(C)c43)c(N3C(=O)C=C(OC)C3=O)c2)C1=O [YC23, 10-(2,4-Bis(3-methoxy-2,5-dioxo-2,5-dihydro-1H-pyrrol-1-yl)phenyl)-5,5-difluoro-1,3,7,9-tetramethyl-5H-dipyrrolo[1,2-c:2′,1′-f][1,3,2]diazaborinin-4-ium-5-uide]",–,–,525,ca. 800 fold,negligible background fluorescence,–,strongly green fluorescent,negligible fluorescence,–,–,maintained its fluorescence,≤ 10,negligible effect on cell viability,< 10,510,concentration-dependent,more than 4 hours,10
